The values below come from patent US6720322B2, “Butyne diol derivatives” (Actelion Pharamceuticals Ltd., priority 1999, dated 2004).

Series [1] concerns the target T1, human recombinant ETA receptors (Homo sapiens, UniProt P25101).
T1 construct: expressed in transfected cells; host or cells: CHO cells (microsomal membranes)
T1 sequence (P25101 21-427): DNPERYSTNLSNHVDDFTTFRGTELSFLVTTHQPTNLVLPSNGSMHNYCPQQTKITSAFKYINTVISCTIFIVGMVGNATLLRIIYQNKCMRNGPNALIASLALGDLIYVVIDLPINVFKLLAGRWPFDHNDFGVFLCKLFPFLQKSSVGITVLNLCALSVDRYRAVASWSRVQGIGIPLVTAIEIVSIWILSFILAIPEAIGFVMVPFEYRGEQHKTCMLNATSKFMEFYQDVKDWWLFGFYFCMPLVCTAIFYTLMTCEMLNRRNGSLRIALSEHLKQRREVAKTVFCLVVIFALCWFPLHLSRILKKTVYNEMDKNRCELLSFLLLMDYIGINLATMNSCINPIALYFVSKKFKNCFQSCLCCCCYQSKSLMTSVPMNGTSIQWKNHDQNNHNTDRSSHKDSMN
Nature of the series: Inhibition of [125I]ET-1 binding to membranes of CHO cells expressing human recombinant ETA receptors. Further: 2.5% DMSO. As to the method:
(§1) 1) Inhibition of Endothelin Binding to Membranes from CHO Cells Carrying Human ET Receptors:
(§2) For competition binding studies, membranes of CHO cells expressing human recombinant ETA or ETB receptors were used.
(§3) The assay was performed in 200 uL 50 mM Tris/HCl buffer, pH 7.4, including 25 mM MnCl2, 1 mM EDTA and 0.5% (w/v) BSA in polypropylene microtiter plates. […] After two h, the membranes were filtered on filterplates containing GF/C filters (Unifilterplates from Canberra Packard S.A. Zürich, Switzerland). To each well, 50 uL of scintillation cocktail was added (MicroScint 20, Canberra Packard S.A. Zürich, Switzerland) and the filter plates counted in a microplate counter (TopCount, Canberra Packard S.A. Zürich, Switzerland).
(§4) All the test compounds were dissolved, diluted and added in DMSO.

For series [2], the target named is T2, rat aortic rings (ETA receptors) (Rattus norvegicus, UniProt P26684).
T2 sequence (P26684 21-426): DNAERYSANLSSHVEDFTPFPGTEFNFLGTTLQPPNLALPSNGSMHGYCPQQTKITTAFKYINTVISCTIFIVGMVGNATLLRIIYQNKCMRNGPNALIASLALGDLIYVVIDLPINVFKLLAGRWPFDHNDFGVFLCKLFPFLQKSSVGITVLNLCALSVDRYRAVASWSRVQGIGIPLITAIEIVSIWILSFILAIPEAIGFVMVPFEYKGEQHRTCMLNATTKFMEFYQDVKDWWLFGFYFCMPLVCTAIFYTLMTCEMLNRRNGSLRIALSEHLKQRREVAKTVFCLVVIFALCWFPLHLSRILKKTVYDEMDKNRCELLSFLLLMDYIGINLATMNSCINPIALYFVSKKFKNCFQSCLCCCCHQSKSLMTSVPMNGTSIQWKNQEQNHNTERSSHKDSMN
Nature of the series: Inhibition of endothelin-1-induced contraction of isolated rat aortic rings.

The target of series [3] is T3, human recombinant ETB receptors (Homo sapiens, UniProt P24530).
T3 construct: expressed in transfected cells; host or cells: CHO cells (microsomal membranes)
T3 sequence (P24530 27-442): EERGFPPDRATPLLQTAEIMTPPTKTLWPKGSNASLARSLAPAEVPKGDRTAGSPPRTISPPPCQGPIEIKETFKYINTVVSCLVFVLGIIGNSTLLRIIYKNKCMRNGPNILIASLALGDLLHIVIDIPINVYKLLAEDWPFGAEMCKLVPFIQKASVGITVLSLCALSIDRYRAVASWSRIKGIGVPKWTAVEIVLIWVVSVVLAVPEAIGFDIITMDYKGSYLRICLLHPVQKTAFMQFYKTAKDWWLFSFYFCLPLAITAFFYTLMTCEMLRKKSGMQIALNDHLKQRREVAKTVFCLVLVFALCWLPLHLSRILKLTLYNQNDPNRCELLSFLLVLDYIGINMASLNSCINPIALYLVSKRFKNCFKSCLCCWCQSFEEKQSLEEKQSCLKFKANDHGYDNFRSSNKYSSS
Nature of the series: Inhibition of [125I]ET-1 binding to membranes of CHO cells expressing human recombinant ETB receptors. Further: 2.5% DMSO. As to the method: as §1, §2, §3, §4

Series [4] has as its target T4, rat tracheal rings (ETB receptors) (Rattus norvegicus, UniProt P21451).
T4 construct: The thoracic aorta or trachea were excised, dissected and cut in 3-5 mm rings; from tissue; host or cells: tracheal rings of adult Wistar rats, epithelium removed
T4 sequence (P21451 27-442): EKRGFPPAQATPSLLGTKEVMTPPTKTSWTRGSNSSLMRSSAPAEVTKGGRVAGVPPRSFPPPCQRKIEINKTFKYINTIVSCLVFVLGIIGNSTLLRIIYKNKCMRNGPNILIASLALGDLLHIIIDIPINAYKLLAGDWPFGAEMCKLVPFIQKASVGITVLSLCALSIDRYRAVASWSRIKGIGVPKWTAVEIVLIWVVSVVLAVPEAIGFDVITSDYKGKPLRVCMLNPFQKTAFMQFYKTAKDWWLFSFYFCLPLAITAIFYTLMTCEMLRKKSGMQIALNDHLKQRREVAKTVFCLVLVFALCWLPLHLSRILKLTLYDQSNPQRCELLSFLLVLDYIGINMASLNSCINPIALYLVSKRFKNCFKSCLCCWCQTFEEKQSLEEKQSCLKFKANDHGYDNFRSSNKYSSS
Put plainly: Inhibition of sarafotoxin S6c-induced contraction of isolated rat tracheal rings. In kind it is cell-based. The note with it: contraction induced by sarafotoxin S6c, 10 min incubation with the test compound; read-out: pA2 trachea (converted).
Description: 2) Inhibition of Endothelin-induced Contractions on Isolated Rat Aortic Rings (ETA Receptors) and Rat Tracheal Rings (ETB Receptors)
The functional inhibitory potency of the endothelin antagonists was assessed by their inhibition of the contraction induced by endothelin-1 on rat aortic rings (ETA receptors) and of the contraction induced by sarafotoxin S6c on rat tracheal (ETB receptors). Adult Wistar rats were anesthetized and exsanguinated. The thoracic aorta or trachea were excised, dissected and cut in 3-5 mm rings. The endothelium/epithelium was removed by gentle rubbing of the intimal surface. […] The rings were connected to force transducers and isometric tension was recorded (EMKA Technologies SA, Paris, France). The rings were stretched to a resting tension of 3 g (aorta) or 2 g (trachea). […] The functional inhibitory potency of the test compound was assessed by calculating the concentration ratio, i.e. the shift to the right of the EC50 induced by different concentrations of test compound. EC50 is the concentration of endothelin needed to get a half-maximal contraction, pA2 is the negative logarithm of the antagonist concentration which induces a two-fold shift in the EC50 value.

The term IC50 denotes the concentration at which inhibition is half-maximal. Turning to `Cc1ccc(-c2c(NS(=O)(=O)c3ccc(C(C)C)cn3)nc(-c3ccncc3)nc2OCC#CCO)cc1` [Example 11d, 5-isopropyl-N-[6-(4-hydroxy-2-butynyloxy)-5-(p-tolyl)-2-(4-pyridyl)-4-pyrimidinyl]-2-pyridine sulfonamide], the IC50 came out at 49 nM in series [1] and 97 nM in series [3]. Moreover, the Kb was 89.1 nM in series [2] and 93.3 nM in series [4].
For the compound `COc1cc(OC)nc(OCC#CCOc2nc(-c3ccncc3)nc(NS(=O)(=O)c3ccc(C(C)C)cn3)c2Oc2ccccc2OC)n1` [Example 18, 5-isopropyl-N-[6-(4-(4,6-dimethoxy-2-pyrimidinyloxy)-2-butynyloxy)-5-(o-methoxyphenoxy)-2-(4-pyridyl)-4-pyrimidinyl]-2-pyridine sulfonamide], the 50% inhibitory concentration (IC50) amounted to 79 nM in series [1] and 36 nM in series [3].
On to `COc1ccccc1Oc1c(NS(=O)(=O)c2ccc(C(C)(C)C)cc2)nc(-c2ccncc2)nc1OCC#CCOc1ncccn1` [Example 19, 4-tert.-butyl-N-[6-(4-(2-pyrimidinyloxy)-2-butynyloxy)-5-(o-methoxyphenoxy)-2-(4-pyridyl)-4-pyrimidinyl]-benzene sulfonamide], for which the values for the IC50 in series [1] and in series [3] were 112 nM and 45 nM, respectively. Besides, the figures for the Kb in series [2] and in series [4] were above 10000 nM and 24 nM, respectively.
As for `COc1cc(OC)nc(OCC#CCOc2nc(-c3ccncc3)nc(NS(=O)(=O)c3ccc(C(C)(C)C)cc3)c2Oc2ccccc2OC)n1` [Example 21, 4-tert.-butyl-N-[6-(4-(4,6-dimethoxy-2-pyrimidinyloxy)-2-butynyloxy)-5-(o-methoxyphenoxy)-2-(4-pyridyl)-4-pyrimidinyl]-benzene sulfonamide], the IC50 in series [1] is 230 nM; in series [3] it was 44 nM.
In general, melting point refers to the temperature, or range, at which the solid turns liquid. As for `COc1ccccc1Oc1c(NS(=O)(=O)c2ccc(C(C)C)cn2)nc(-c2ccncc2)nc1OCC#CCOC(=O)Nc1cccc(C)c1` [Example 54, m-tolyl-carbamic acid 4-[6-(5-isopropyl-pyridine-2-sulfonylamino)-5-(2-methoxy-phenoxy)-2-pyridin-4-yl-pyrimidin-4-yloxy]-but-2-ynyl ester], the melting point lay in the range of 163 to 165 °C.
As for `COc1ccccc1Oc1c(NS(=O)(=O)c2ccc(C(C)C)cn2)nc(C)nc1OCC#CCOC(=O)Nc1ccccc1` [Example 70], the IC50 is 94 nM in series [1] and 375 nM in series [3].
The like results for `COCC#CCOc1nc(N2CCOCC2)nc(NS(=O)(=O)c2ccc(C(C)C)cn2)c1Oc1ccccc1OC` [Example 94, 5-isopropyl-N-[6-(4-methoxy-2-butynyloxy)-5-(o-methoxyphenoxy)-2-(N-morpholino)-4-pyrimidinyl]-2-pyridine sulfonamide] were, in that order, 13 nM and 107 nM.
